Assay results reported in patent US9850283B2, “Macrocyclic inhibitors of the PD-1/PD-L1 and CD80(B7-1)/PD-L1 protein/protein interactions” (BRISTOL-MYERS SQUIBB COMPANY, priority 2013, dated 2017).
Like-named read-outs stand apart in the source and are kept apart here. Positions of bridges follow the written chain, without caps; N, C: chain ends. Non-standard residues stand in square brackets, D forms with d. Residues, ends and D or L forms follow the SMILES beside them. Phe(F5) = N[C@@H](Cc1c(F)c(F)c(F)c(F)c1F)C(=O)O; Pro(4R-NH2) = N[C@H]1CN[C@H](C(=O)O)C1; Phe(2-Me) = Cc1ccccc1C[C@H](N)C(=O)O; Bta = N[C@@H](Cc1csc2ccccc12)C(=O)O; Hyp = O=C(O)[C@@H]1C[C@@H](O)CN1; NMeF = CN[C@@H](Cc1ccccc1)C(=O)O; NMeE = CN[C@@H](CCC(=O)O)C(=O)O; NMeNle = CCCC[C@H](NC)C(=O)O; NMeA = CN[C@@H](C)C(=O)O; Dab = NCC[C@H](N)C(=O)O; Dap = NC[C@H](N)C(=O)O; Sar = CNCC(=O)O

What was measured:
[1] = target: T1, LK35.2-hPD-L1 cells / PE-labeled PD-1-Ig (Homo sapiens, UniProt Q9NZQ7); assay: LK35.2-hPD-L1 cell binding high-content screening assay; format: cell-based; conditions: cluster symbol, read-out: CBA IC50 cluster
T1 construct: expressed in transfected cells; host or cells: LK35.2 mouse B cell line
T1 sequence (Q9NZQ7 19-290): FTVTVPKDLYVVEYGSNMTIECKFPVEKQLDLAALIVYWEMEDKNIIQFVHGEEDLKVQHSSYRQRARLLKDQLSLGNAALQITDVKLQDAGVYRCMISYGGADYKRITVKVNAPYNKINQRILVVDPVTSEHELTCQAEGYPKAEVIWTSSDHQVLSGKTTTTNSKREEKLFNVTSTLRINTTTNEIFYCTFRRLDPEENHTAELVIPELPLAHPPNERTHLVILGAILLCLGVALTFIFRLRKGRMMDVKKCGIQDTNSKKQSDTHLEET
How it was run: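 Using overnight-cultured LK35.2-hPD-L1 mouse B cells, compound was co-incubated with phycoerythrin-tagged human PD-1-Ig (final 1 nM) at 37 °C for one hour. Unbound label was removed by triple dPBS washing prior to high-content image acquisition and analysis.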

Human PD-L1/PD-1 = target: T2, Human PD-L1/PD-1 (Homo sapiens, UniProt Q9NZQ7); assay: HTRF PD-1-Ig/PD-L1-His binding assay (human PD-L1); conditions: cluster symbol; read-out: HTRF IC50 cluster
T2 construct: made in house; host or cells: HEK293T
T2 sequence (Q9NZQ7 with tags, fused parts or gaps): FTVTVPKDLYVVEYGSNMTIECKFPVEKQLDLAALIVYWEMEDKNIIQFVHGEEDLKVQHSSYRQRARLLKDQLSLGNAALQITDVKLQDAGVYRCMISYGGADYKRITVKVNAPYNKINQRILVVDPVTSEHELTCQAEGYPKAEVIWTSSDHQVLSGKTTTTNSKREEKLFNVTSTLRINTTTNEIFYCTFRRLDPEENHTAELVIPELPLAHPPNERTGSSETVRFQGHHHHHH
How it was run: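 Soluble Fc-fused PD-1 and His-tagged PD-L1 (truncated before the transmembrane region) were combined in dPBS with 0.1% (w/v) BSA and 0.05% (v/v) Tween-20. Binding was read by HTRF using europium cryptate anti-Ig antibody (1 nM final) and APC anti-His antibody (20 nM final).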

[2] = cell binding assay, cell line not given
[3] = cell line of CBA not given (LK35.2-hPD-L1 or 293T-hPD-L1)

Row | SMILES | IC50 [1, 2] [nM] | IC50 (Human PD-L1/PD-1) [nM] | IC50 [1, 3] [nM]
1 | CCCC[C@H]1C(=O)N(C)[C@@H](CCCC)C(=O)N[C@@H](CC(C)C)C(=O)N[C@H](C(=O)NCC(N)=O)CSCC(=O)N[C@@H](Cc2ccc(O)cc2)C(=O)N(C)[C@@H](C)C(=O)N[C@@H](CC(=O)O)C(=O)N2CCC[C@H]2C(=O)N[C@@H](Cc2cnc[nH]2)C(=O)N[C@@H](CCC(=O)O)C(=O)N2C[C@H](O)C[C@H]2C(=O)N[C@@H](Cc2c[nH]c3ccccc23)C(=O)N[C@@H](CO)C(=O)N[C@@H](Cc2c[nH]c3ccccc23)C(=O)N1C [Example 6026] ({CH2CO}-Y[NMeA]DPHE[Hyp]WSW[NMeNle][NMeNle]LCG-NH2; thioether N-14) | 0.158 to 4.71 | 0.385 to 6.74 | –
2 | CCCC[C@H]1C(=O)N(C)[C@@H](CCCC)C(=O)N[C@@H](CCCNC(=N)N)C(=O)N[C@H](C(=O)NCC(N)=O)CSCC(=O)N[C@@H](Cc2ccc(O)cc2)C(=O)N(C)[C@@H](CCC(=O)O)C(=O)N[C@@H](CC(N)=O)C(=O)N2CCC[C@H]2C(=O)N[C@@H](Cc2cnc[nH]2)C(=O)N[C@@H](CC(C)C)C(=O)N(C)CC(=O)N[C@@H](Cc2c[nH]c3ccccc23)C(=O)N[C@@H](CO)C(=O)N[C@@H](Cc2c[nH]c3ccccc23)C(=O)N1C [Example 1189] | – | > 30.5 | > 74.3
3 | CCCC[C@H]1C(=O)N[C@@H](CCCNC(=N)N)C(=O)N[C@H](C(=O)NCC(N)=O)CSCC(=O)N[C@@H](Cc2ccccc2)C(=O)N(C)[C@@H](C)C(=O)N[C@@H](CC(N)=O)C(=O)N2CCC[C@H]2C(=O)N[C@@H](Cc2cnc[nH]2)C(=O)N[C@@H](CC(C)C)C(=O)N(C)CC(=O)N[C@@H](Cc2c[nH]c3ccccc23)C(=O)N[C@@H](CO)C(=O)N[C@@H](Cc2c[nH]c3ccccc23)C(=O)N[C@@H](Cc2c(F)c(F)c(F)c(F)c2F)C(=O)N1C [Example 1058] ({CH2CO}-F[NMeA]NPHL[Sar]WSW[Phe(F5)][NMeNle]RCG-NH2; thioether N-14) | – | > 30.5 | > 74.3
4 | CCCC[C@H]1C(=O)N(C)[C@@H](CCCC)C(=O)N[C@@H](C)C(=O)N[C@H](C(=O)NCC(N)=O)CSCC(=O)N[C@@H](Cc2ccc(O)cc2)C(=O)N(C)[C@@H](C)C(=O)N[C@@H](CC(=O)O)C(=O)N2CCC[C@H]2C(=O)N[C@@H](Cc2cnc[nH]2)C(=O)N[C@@H](CCC(=O)O)C(=O)N2C[C@H](O)C[C@H]2C(=O)N[C@@H](Cc2c[nH]c3ccccc23)C(=O)N[C@@H](CCN)C(=O)N[C@@H](Cc2c[nH]c3ccccc23)C(=O)N1C [Example 5037] ({CH2CO}-Y[NMeA]DPHE[Hyp]W[Dab]W[NMeNle][NMeNle]ACG-NH2; thioether N-14) | 0.158 to 4.71 | 0.385 to 6.74 | –
5 | CCCC[C@H]1C(=O)N(C)[C@@H](CCCC)C(=O)N[C@@H](CCCNC(=N)N)C(=O)N[C@H](C(=O)NCC(N)=O)CSCC(=O)N[C@@H](Cc2ccc(O)cc2)C(=O)N(C)[C@@H](CCC(=O)O)C(=O)N[C@@H](CC(N)=O)C(=O)N2CCC[C@H]2C(=O)N[C@@H](Cc2cnc[nH]2)C(=O)N[C@@H](CC(C)C)C(=O)N2CCC[C@H]2C(=O)N[C@@H](Cc2c[nH]c3ccccc23)C(=O)N[C@@H](CO)C(=O)N[C@@H](Cc2csc3ccccc23)C(=O)N1C [Example 1191] ({CH2CO}-Y[NMeE]NPHLPWS[Bta][NMeNle][NMeNle]RCG-NH2; thioether N-14) | – | > 30.5 | > 74.3
6 | CC(C)C[C@@H]1NC(=O)[C@H](Cc2c[nH]cn2)NC(=O)[C@@H]2CCCN2C(=O)[C@H](CC(N)=O)NC(=O)[C@H](C)N(C)C(=O)[C@H](Cc2ccccc2)NC(=O)CSC[C@@H](C(=O)NCC(N)=O)NC(=O)[C@H](CCCNC(=N)N)NC(=O)[C@H](C)N(C)C(=O)[C@H](Cc2ccc(-c3ccccc3)cc2)NC(=O)[C@H](Cc2c[nH]c3ccccc23)NC(=O)[C@H](CO)NC(=O)[C@H](Cc2c[nH]c3ccccc23)NC(=O)CN(C)C1=O [Example 1032] (HELM PEPTIDE1{[O=C(C[*:3])[*:2]].F.[meA].N.P.H.L.[Sar].W.S.W.[O=C([C@H](Cc1ccc(-c2ccccc2)cc1)N[*:1])[*:2]].[meA].R.C.G.[am]}$PEPTIDE1,PEPTIDE1,1:R3-15:R3$$$V2.0) | – | > 30.5 | > 74.3
7 | CCCC[C@H]1C(=O)N(C)[C@@H](CCCC)C(=O)N[C@@H](CN)C(=O)N[C@H](C(=O)NCC(N)=O)CSCC(=O)N[C@@H](Cc2ccc(O)cc2)C(=O)N(C)[C@@H](C)C(=O)N[C@@H](CC(N)=O)C(=O)N2CCC[C@H]2C(=O)N[C@@H](CN)C(=O)N[C@@H](CCC(=O)O)C(=O)N2C[C@H](O)C[C@H]2C(=O)N[C@@H](Cc2c[nH]c3ccccc23)C(=O)N[C@@H](CCN)C(=O)N[C@@H](Cc2c[nH]c3ccccc23)C(=O)N1C [Example 5060] ({CH2CO}-Y[NMeA]NP[Dap]E[Hyp]W[Dab]W[NMeNle][NMeNle][Dap]CG-NH2; thioether N-14) | 4.78 to 72.9 | 0.385 to 6.74 | –
8 | CCCC[C@H]1C(=O)N(C)[C@@H](CCCC)C(=O)N[C@@H](C)C(=O)N[C@H](C(=O)NCC(N)=O)CSCC(=O)N[C@@H](Cc2ccc(O)cc2)C(=O)N(C)[C@@H](C)C(=O)N[C@@H](CC(N)=O)C(=O)N2CCC[C@H]2C(=O)N[C@@H](Cc2cnc[nH]2)C(=O)N[C@@H](CCC(N)=O)C(=O)N2C[C@H](O)C[C@H]2C(=O)N[C@@H](Cc2c[nH]c3ccccc23)C(=O)N[C@@H](CCN)C(=O)N[C@@H](Cc2c[nH]c3ccccc23)C(=O)N1C [Example 5038] ({CH2CO}-Y[NMeA]NPHQ[Hyp]W[Dab]W[NMeNle][NMeNle]ACG-NH2; thioether N-14) | 0.158 to 4.71 | 6.76 to 30.3 | –
9 | CCCC[C@H]1C(=O)N(C)[C@@H](CCCC)C(=O)N[C@@H](CCCNC(=N)N)C(=O)N[C@H](C(=O)NCC(N)=O)CSCC(=O)N[C@@H](Cc2ccccc2C)C(=O)N(C)[C@@H](C)C(=O)N[C@@H](CC(N)=O)C(=O)N2CCC[C@H]2C(=O)N[C@@H](Cc2cnc[nH]2)C(=O)N[C@@H](CC(C)C)C(=O)N(C)CC(=O)N[C@@H](Cc2c[nH]c3ccccc23)C(=O)N[C@@H](CO)C(=O)N[C@@H](Cc2c[nH]c3ccccc23)C(=O)N1C [Example 1106] ({CH2CO}-[Phe(2-Me)][NMeA]NPHL[Sar]WSW[NMeNle][NMeNle]RCG-NH2; thioether N-14) | – | 6.76 to 30.3 | 4.78 to 72.9

More lines, now with the values ahead:

Row | IC50 [1, 2] [nM] | IC50 (Human PD-L1/PD-1) [nM] | IC50 [1, 3] [nM] | SMILES
10 | > 74.3 | > 30.5 | – | CCCC[C@H]1C(=O)N(C)CC(=O)N[C@@H](CC(=O)O)C(=O)N[C@@H](C(C)C)C(=O)N(C)[C@@H](Cc2ccccc2)C(=O)N[C@@H](Cc2ccc(O)cc2)C(=O)N(C)CC(=O)N[C@H](Cc2c[nH]c3ccccc23)C(=O)N[C@@H](Cc2ccc(O)cc2)C(=O)N[C@@H](CC(C)C)C(=O)N[C@H](C(=O)NCC(N)=O)CSCC(=O)N[C@@H](Cc2ccccc2)C(=O)N(C)[C@@H](Cc2ccccc2)C(=O)N1C [Example 3563] (HELM PEPTIDE1{[O=C(C[*:3])[*:2]].F.[meF].[CCCC[C@@H](C(=O)[*:2])N(C)[*:1]].[Sar].D.V.[meF].Y.[Sar].[dW].Y.L.C.G.[am]}$PEPTIDE1,PEPTIDE1,1:R3-14:R3$$$V2.0)
11 | – | > 30.5 | > 74.3 | CCCC[C@H]1C(=O)N(C)CC(=O)N[C@@H](CC(=O)O)C(=O)N[C@@H](C(C)C)C(=O)N(C)[C@@H](Cc2ccccc2)C(=O)N[C@@H](Cc2ccc(O)cc2)C(=O)N(C)CC(=O)N[C@@H](C)C(=O)N[C@@H](Cc2ccc(O)cc2)C(=O)N[C@@H](CC(C)C)C(=O)N[C@@H](C(=O)NCC(N)=O)CSCC(=O)N[C@@H](Cc2ccccc2)C(=O)N(C)[C@@H](Cc2ccccc2)C(=O)N1C [Example 1001] (HELM PEPTIDE1{[O=C(C[*:3])[*:2]].F.[meF].[CCCC[C@@H](C(=O)[*:2])N(C)[*:1]].[Sar].D.V.[meF].Y.[Sar].A.Y.L.[dC].G.[am]}$PEPTIDE1,PEPTIDE1,1:R3-14:R3$$$V2.0)
12 | – | 6.76 to 30.3 | 4.78 to 72.9 | CCCC[C@H]1C(=O)N2CCC[C@@H]2C(=O)N2C[C@H](N)C[C@H]2C(=O)N[C@@H](C(C)C)C(=O)N(C)[C@@H](Cc2ccccc2)C(=O)N[C@@H](Cc2ccc(O)cc2)C(=O)N(C)CC(=O)N[C@@H](Cc2c[nH]c3ccccc23)C(=O)N[C@@H](Cc2ccc(O)cc2)C(=O)N[C@@H](CC(C)C)C(=O)N[C@H](C(=O)NCC(N)=O)CSCC(=O)N[C@@H](Cc2ccccc2)C(=O)N(C)[C@@H](Cc2ccccc2)C(=O)N1C [Example 3175] ({CH2CO}-F[NMeF][NMeNle][dP][Pro(4R-NH2)]V[NMeF]Y[Sar]WYLCG-NH2; thioether N-13)
13 | – | > 30.5 | > 74.3 | CCCC[C@H]1C(=O)N(C)CC(=O)N[C@@H](CC(=O)O)C(=O)N[C@@H](C(C)C)C(=O)N(C)[C@@H](Cc2ccccc2)C(=O)N[C@@H](Cc2ccc(O)cc2)C(=O)N(C)CC(=O)N[C@@H](Cc2c[nH]c3ccccc23)C(=O)N[C@@H](Cc2ccc(O)cc2)C(=O)N[C@@H](CC(C)C)C(=O)N[C@H](C(=O)NCC(N)=O)CSCC(=O)N[C@@H](Cc2ccccc2)C(=O)N1C [Example 3053] (HELM PEPTIDE1{[O=C(C[*:3])[*:2]].F.[CCCC[C@@H](C(=O)[*:2])N(C)[*:1]].[Sar].D.V.[meF].Y.[Sar].W.Y.L.C.G.[am]}$PEPTIDE1,PEPTIDE1,1:R3-13:R3$$$V2.0)
14 | 4.78 to 72.9 | 6.76 to 30.3 | – | CCCC[C@H]1C(=O)N(C)[C@@H](CCCC)C(=O)N[C@@H](CCCNC(=N)N)C(=O)N[C@H](C(=O)NCC(N)=O)CSCC(=O)N[C@@H](Cc2ccccc2)C(=O)N(C)[C@@H](C)C(=O)N[C@@H](CC(N)=O)C(=O)N2CCC[C@H]2C(=O)N[C@@H](Cc2cnc[nH]2)C(=O)N[C@@H](Cc2ccc(O)cc2)C(=O)N(C)CC(=O)N[C@@H](Cc2c[nH]c3ccccc23)C(=O)N[C@@H](CO)C(=O)N[C@@H](Cc2c[nH]c3ccccc23)C(=O)N1C [Example 6014] ({CH2CO}-F[NMeA]NPHY[Sar]WSW[NMeNle][NMeNle]RCG-NH2; thioether N-14)
